Two compounds from patent publication US11571427B2, “Targeting the CBM signalosome complex induces regulatory T cells to inflame the tumor microenvironment” (THE GENERAL HOSPITAL CORPORATION, priority 2017, dated 2023) can be followed below.

The subject of one assay is tumor-infiltrating Treg. Nature of the assay: In situ effector cytokine expression and frequency of tumor-infiltrating Treg (flow cytometry). To be noted: within 3 days of mepazine, FIG. 14K. The class given is in vivo, mice. How it is done: Preparation of single cell suspensions, antibody staining and flow cytometry. Heparinized peripheral blood collected through sub-mandibular vein puncture was treated with ACK red blood cell lysis buffer. LNs and spleens were passed through 40 μm cell strainers, followed by red blood cell lysis (spleens only). Tumors were minced into small fragments and treated with 1.5 mg/ml collagenase IV and 50 U/ml DNAse I for 30 min. at 37° C. under agitation.
Intracellular and nuclear proteins were stained for 60 minutes at room temperature after permeabilization and fixation (Mouse regulatory T cell staining Kit; eBioscience) using antibodies against: CD152/CTLA-4-(UC10-4B9), TNF (MP6-XT22), IL-4 (11B11), IL-17A (TC11-18H10.1), IFNγ (XMG1.2), and Ki67 (16A8) (BD Biosciences), BIM (C34C5), CARD11/CARMA1 (1D12) (Cell Signaling), Foxp3 (FJK-16s, eBioscience), GFP (rabbit polyclonal, Invitrogen). Polyclonal goat α-rabbit Ig (H+L) secondary antibody (Life Technologies) was used to reveal primary α-CARMA1 staining.
(§1) Preceding antibody staining, Fc receptors were blocked with TruStain fcX (Biolegend) for 20 minutes at 4° C., followed by dead cells staining using the fixable viability violet dye […] (Biolegend) for 15 minutes at room temperature. Cells were analyzed on LSRII, LSRFortessa or LSRFortessa X-20 flow cytometers (BD Biosciences), and data were analyzed with FlowJo software version 9.9.5.
Analysis of in situ and ex vivo stimulated cytokine secretion. To detect in situ cytokine secretion, mice were slowly i.v. injected with 500 μg of fully dissolved Brefeldin A in 250 μl PBS 6 h before sacrifice and intracellular cytokine staining.
For orientation: Flow cytometry measures light scatter and fluorescence of single cells or particles in a stream.

For the next assay, the system named is whole tumor tissue. The assay is described as follows: Gene expression in whole tumor tissue (RT-qPCR). The class given is in vivo, mice. The protocol:
Quantitative RT-PCR. For analysis of gene expression, RNA was isolated (AllPrep, DNA/RNA Mini kit; Qiagen) from CD4+ GFP+ Treg sorted to >99% purity from tdFNs and tumors, or from homogenized tumor tissue, and reverse transcribed using iScript cDNA Synthesis Kit (Bio-RAD). Quantitative RT-PCR was performed using iQ SYBR green supermix (Bio-RAD) and primers: […]
Results were expressed as 2-ΔCT relative to the house keeping gene GAPDH.

The subject of the next assay is D4M.3A tumor cells. Nature of the assay: MHC I and PD-L1 expression on tumor cells after mepazine treatment. The class given is in vivo, mice. The conditions noted are these: within 3 days of mepazine; FIG. 4E.
Assay [1] has as its system D4M.3A melanoma. Nature of the assay: D4M.3A tumor growth in RAG1-deficient hosts. The class given is in vivo, mice. To be noted: hosts lack lymphocytes, FIG. 4D. The text has this: Mice. Foxp3YFP-Cre (Ref. 1), Foxp3GFP-Cre-ERT2 (Ref 2), Rosa26YFP (Ref. 4), Ifng KO (Ref.5) and C57BL/6/J mice were purchased from Jackson laboratories. […] and James J. […] Animals were housed in specific pathogen-free facilities at the Massachusetts General Hospital (MGH) and all experimental studies were approved and performed in accordance with guidelines and regulations implemented by the MGH Institutional Animal Care and Use Committee (IACUC). For survival studies the age of mice at euthanasia mandated by a moribund state of health was recorded in Kaplan Meyer plots. […] Wherever possible, animals were randomized into treatment groups. Tumor volumes were measured every second to third day after start of treatments and calculated as V=(length×width^2)/2.

Another assay has as its system Treg. Nature of the assay: In vitro treatment of sorted YFP+ Treg with Mepazine. The class given is cell-based, mice. The conditions noted are these: 10 μM Mepazine. How it is done: (§2) FIGS. 13A-13K. (FIG. 13A), MHC II expression on tumor-associated macrophages in D4M.3A-implanted F^Cre/+×C1^++, f/+ or f/f mice. (FIG. 13B), D4M.3A tumor growth in mice treated with depleting αCD8 Ab from day 8 and treated with mepazine or not from day 9. (FIG. 13C), D4M.3A tumor growth in F^Cre/+×C1^+/+ or f/f mice treated with Mepazine or vehicle starting on day 9. (FIG. 13D), YFP^+ Treg were sorted from F^Cre×C1^+/+ mice and treated with 10 μM Mepazine of vehicle for 8 or 24 hours with or without concurrent αCD3/28 mAb TCR stimulation (8 h time-point only) and expression of Foxp3, markers of eTreg differentiation, cell viability, and frequency of eTreg were recorded. (FIG. 13E), RT-qPCR analysis of expression of Foxp3 and various Treg-associated genes in whole tumor tissue lysate following 3 days of Mepazine or vehicle treatment. (FIGS. 13F-13J), Composition of the tumor tissue immune infiltrate and frequencies of CD45^+ cells (FIG. 13G) and of various immune cell subsets (FIG. 13H) as well Ki67 expression by Tconv (FIG. 13I) and MHC II expression by macrophages (FIG. 13J) following 3 days of Mepazine or vehicle treatment. (FIG. 13K), Effector cytokine co-expression by tumor-infiltrating Treg following 12 days Mepazine and αPD-1 Ab treatment. *=p<0.05, **=p<0.01, and ***=p<0.001. *, #=any p<0.05 vs. C1^+/+ and C1^+/++ Mepazine, resp. in FIG. 13C.

Assay [2] deals with tumor tissue immune infiltrate. The assay is described as follows: Composition of the tumor tissue immune infiltrate. The class given is in vivo, mice. To be noted: 3 days of Mepazine or vehicle; FIGS. 13F-13J. The protocol:
as §2
Preparation of single cell suspensions, antibody staining and flow cytometry. Heparinized peripheral blood collected through sub-mandibular vein puncture was treated with ACK red blood cell lysis buffer. LNs and spleens were passed through 40 μm cell strainers, followed by red blood cell lysis (spleens only). […]
as §1

The test system of assay [3] is D4M.3A melanoma. Nature of the assay: D4M.3A tumor growth in F^Cre/+×C1^+/+ or f/f mice treated with Mepazine or vehicle. Format: in vivo. The conditions noted are these: Mepazine from day 9, FIG. 13C. How it is done: as §2, with “(FIG. 13K), Effector cytokine co-expression by tumor-infiltrating Treg following 12 days Mepazine and αPD-1 Ab treatment. *=p<0.05, **=p<0.01, and ***=p<0.001. *, #=any p<0.05 vs. C1^+/+ and C1^+/++ Mepazine, resp. in FIG. 13C.” left out
Tumor growth studies and treatments. […] Tumor volumes were measured every second to third day after start of treatments and calculated as V=(length×width^2)/2. […]

Procedure for D4M.3A tumor cells: (FIG. 4A) Female Foxp3^GFP-CreERT2×CARMA1^+/+ and ×CARMA1^1111 mice were implanted with D4M.3A melanoma and starting on day 9 treated with tamoxifen until the end of the experiment as well as with three doses of 200 μg of the blocking α-PD-1 antibody 29F.1A12 or isotype control antibody, and tumor growth was recorded. […] (FIGS. 4C and 4D) D4M.3A tumor growth in C57BL/6 (FIG. 4C) or RAG1-deficient hosts (FIG. 4D) treated with MALT1 inhibitors mepazine or MI-2. (FIGS. 4E-4G) Mepazine effects within 3 days on MHC I and PD-L1 expression on tumor cells (FIG. 4E), expression of genes of adaptive immune resistance (Pdl1, Socs1), MHC I antigen presentation (Tap1), IFNγ-signaling (Stat1, Irf1), T cell recruitment (CXCL10), M1 macrophage activation (Nos2), and cytotoxicity (Gzmb) (FIG. 4F), as well as the frequency of CD4^+ and CD8^+ T cells (FIG. 4G). […] All graphs show means and either individual replicates or ±SEM.
Preparation of single cell suspensions, antibody staining and flow cytometry. […]
Preceding antibody staining, Fc receptors were blocked with TruStain fcX (Biolegend) for 20 minutes at 4° C., followed by dead cells staining using the fixable viability violet dye Zombie Red (Biolegend) for 15 minutes at room temperature. Cells were analyzed on LSRII, LSRFortessa or LSRFortessa X-20 flow cytometers (BD Biosciences), and data were analyzed with FlowJo software version 9.9.5.

On to `CN1CCCC(CN2c3ccccc3Sc3ccccc32)C1` (stereo not shown) [mepazine], for which, in the assay on tumor-infiltrating Treg (in situ), the “IFNγ-expression by tumor-infiltrating Treg” value is on record as “rapid induction” and the “TNF-expression by tumor-infiltrating Treg” value is recorded as “rapid induction”. For the same compound, in the assay with tumor-infiltrating Treg, the “Treg frequency in tumor” value is on record as “did not reduce Treg frequency”. Moreover, the “expression of Treg-associated genes in tumor tissue” value in the assay on whole tumor tissue (3 days of Mepazine or vehicle, FIG. 13E) was “not altered”. The “IFN-γ-regulated genes in whole tumor tissue” value in the assay on whole tumor tissue (3 days of mepazine) is given as “induction of a wide range of IFN-γ-regulated genes”. In the assay on D4M.3A tumor cells, the “MHC I expression on tumor cells” value is given as “up-regulation” and the “PD-L1-expression on tumor cells” value is “up-regulation”. In the assay with D4M.3A melanoma [1], the “tumor growth in Rag1-deficient mice” value is “no effect on tumor growth”. Moreover, in the assay on Treg (8 or 24 hours, FIG. 13D), the “Foxp3 expression of Treg in vitro” value is “only a minor reduction” and the “GITR expression of Treg in vitro” value was “only a minor reduction”. In addition, in the assay with Treg (not shown), the “effector cytokine expression of Treg in vitro” value is given as “no effector cytokine expression”. In assay [2], the “frequency of CTL in tumor tissue” value is given as “increased”, the “frequency of NK cells in tumor tissue” value is “increased” and the “immune cell infiltration of tumor tissue” value is listed as “generally enhanced”. Moreover, the “addition to anti-tumor effect of CARMA1-deletion in Treg” value with D4M.3A melanoma [3] is on record as “did not add to the anti-tumor effect of CARMA1-deletion in Treg”.

As to `COCCOc1nc(-c2ccc(Cl)c(Cl)c2)n(-c2ccc(NC(=O)CCl)cc2)n1` [MI-2], the “tumor growth in Rag1-deficient mice” value with D4M.3A melanoma [1] was “no effect on tumor growth”.
